The term viability, T/C denotes the result in the treated group divided by that in the control group, in per cent. One may read the IC50 as the concentration needed to halve the response being measured.

Values joined by “and” are separate entries in the source; they are usually repeats but may differ in a detail not shown here. Equal values may be shown once.

In this assay the test system is SUM149PT spheroids with HUVEC/MSC, viability. Nature of the assay: Anticancer human tumor SUM149PT cell line growth inhibition [GQUAD].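 As to all read-outs here: spheroids exposed to drugs for seven days before readout.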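 As to viability, T/C: percent viability relative to DMSO vehicle control taken as 100%.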 The conditions noted are these: for viability, T/C: stronger effect = lower value. An excerpt: DNA G-quadruplex Stabilizer Agents in Combinations in Complex Spheroids
A high-throughput screen of multi-cell type tumor spheroids was designed to identify active combinations of DNA G-quadruplex stabilizer agents and targeted small molecules. Complex spheroids include a stromal component modeled by human endothelial cells (HUVEC) and fibroblasts modeled by human mesenchymal stem cells (MSCs). The concentration ranges selected for each drug and investigational agent were based upon clinically achievable concentrations if the clinical Cmax of the agent was known.
Compounds. The drugs and investigational agents: pidnarulex (CX-5461; NSC782164), APTO-253 (NSC789042), BRACO-19 (NSC847499), peposertib (NSC802822), ceralasertib (NSC780249), elimusertib (NSC800525), camonsertib (NSC841442), AZD-1390 (NSC803789), olaparib (NSC753686), talazoparib (NSC767125), ART-558 (NSC835418), sotorasib (NSC818433), MRTX-1133 (NSC836407), SN-38 (NSC673596), topotecan (NSC609699), etoposide (NSC141540), doxorubicin (NSC123127), gemcitabine (NSC613327), 5-fluorouracil (NSC19893), paclitaxel (NSC125973), vemurafenib (NSC761431), panobinostat (NSC761190), R-306465 (JNJ-16241199; NSC773264), adavosertib (NSC754352), TP-3654 (NSC805149), carboplatin (NSC241240), KSQ-4279 (NSC840948), and staurosporine (NSC755774) were obtained from the National Cancer Institute (NCI) Developmental Therapeutics Program Chemical Repository (34). The FDA-approved anticancer drug set is available from the NCI Developmental Therapeutics Program. […] The stock solutions were prepared in dimethyl sulfoxide (DMSO, Sigma-Aldrich, St. Louis, MO, cat. D2650) at 800-fold the tested concentration and stored at -70 degrees C prior to their use. All drugs and investigational agents were tested over a range starting from a high concentration at or near the clinical Cmax and decreasing in half-log increments. If the clinical Cmax for an agent had not been determined, the highest concentration tested was 10 microM.
2.3 Cell Culture. All cells were maintained in an incubator at 37 degrees C and 5% CO2 with 95% humidity. The PDC lines were cultured according to standard operating procedures established by the NCI PDMR. All PDCs were thawed and cultured in Matrigel-coated flasks prepared with a working solution of 1X Ham's F-12 nutrient mix, without supplementation (Invitrogen, cat. 11765054), 100 U/mL penicillin-streptomycin (Invitrogen, cat. 15140122), and 2.5% Matrigel (Corning Inc., cat. 354248) for the first three passages. The 857933-349-R-J2-PDC line was cultured in 6C/Colon 1B media, which includes advanced DMEM/F-12 (Thermo Fisher Scientific, cat. 12634028), 10 mM HEPES (Thermo Fisher Scientific, cat. 15630080), 1X GlutaMAX supplement (Thermo Fisher Scientific, cat. 35050061), 0.1 mg/mL primocin (InvivoGen, cat. ant-pm-2), 10% defined fetal bovine serum, heat inactivated (HyClone Laboratories Inc., cat. SH30070.03HI), 50% L-WRN conditioned media (ATCC, cat. CRL-3276), 1.25 mM N-Acetyl-L-cysteine (Sigma-Aldrich, cat. A9165), 10 mM nicotinamide (Sigma-Aldrich, cat. N0636), 1X B-27 supplement (Thermo Fisher Scientific, cat. 17504044), 1X N-2 supplement (Thermo Fisher Scientific, cat. 17502048), 10 microM Y-27632 dihydrochloride (Tocris Bioscience, cat. 1254), and 50 ng/mL human EGF recombinant protein (Thermo Fisher Scientific, cat. PHG0311). The 485176-168-R4-J1-PDC line was cultured in Panc media, which includes all 6C/Colon 1B media components plus 100 ng/mL human FGF-10 (Thermo Fisher Scientific, cat. 100-26), 500 nM SB-431542 (Selleckchem, cat. S1067), and gastrin (Tocris, cat. 3006).
[…]

As for `C#Cc1c(F)ccc2cc(O)cc(-c3ncc4c(N5CC6CCC(C5)N6)nc(OCC56CCCN5CC(F)C6)nc4c3F)c12` (stereo not given), the viability, T/C was 92.8% and 104% and 99.7% (compound 0.0316 µM); 74.4% and 90.1% and 92.7% (compound 0.1 µM); 58.9% and 82.1% and 77.1% (compound 0.316 µM); 40.6% and 62.5% and 67.6% (compound 1 µM); 37.8% and 70.5% and 53.1% (compound 3.16 µM); 30.2% and 42.8% and 41.5% (compound 10 µM).
As to `C=CC(=O)N1CCN(c2nc(=O)n(-c3c(C)ccnc3C(C)C)c3nc(-c4c(O)cccc4F)c(F)cc23)C(C)C1` (stereo not given), the viability, T/C (compound 0.0316 µM) was 96.6% and 99.6% and 101%; the viability, T/C (compound 0.1 µM) is 94.5% and 96.4% and 104%; the viability, T/C (compound 0.316 µM) was 114% and 106% and 105%; the viability, T/C (compound 1 µM) is 111% and 110% (2×); the viability, T/C (compound 3.16 µM) is 120% and 113% and 117%; the viability, T/C (compound 10 µM) was 109% and 101% and 114%. In addition, for the setting “curve of compound”, the IC50 was above 10000 nM.
Regarding `CC(=O)O[C@H]1C(=O)[C@@]2(C)[C@H]([C@H](OC(=O)c3ccccc3)[C@]3(O)C[C@H](OC(=O)[C@H](O)[C@@H](NC(=O)c4ccccc4)c4ccccc4)C(C)=C1C3(C)C)[C@]1(OC(C)=O)CO[C@@H]1C[C@@H]2O`, the viability, T/C is, setting by setting: (compound 0.0316 µM) 29.9% and 31.4% and 22.4%; (compound 0.1 µM) 25.7% and 26.3% and 18.2%; (compound 0.316 µM) 25.7% and 20.8% and 15.6%; (compound 1 µM) 22.3% and 19.5% and 11.7%; (compound 3.16 µM) 22.6% and 20.4% and 11%; (compound 10 µM) 26.4% and 22.7% and 16.2%. Further, the IC50 (curve of compound) is below 31.6 nM.
Turning to `CC(C)n1c(=O)n(C)c2cnc3cc(F)c(-c4ccc(OCCCN5CCCCC5)nc4)cc3c21`, the viability, T/C is, setting by setting: (compound 0.0316 µM) 96.3% and 102% and 96.4%; (compound 0.1 µM) 87.4% and 89.6% and 75.7%; (compound 0.316 µM) 94.5% and 98.5% and 85.1%; (compound 1 µM) 101% and 94.2% and 96.9%; (compound 3.16 µM) 98.9% and 96.3% and 105%; (compound 10 µM) 67.4% and 66.7% and 62.4%. The IC50 (curve of compound) was above 10000 nM.
Regarding `CC1COCCN1c1cc(-c2ccnn2C)c2ccnc(-c3ccn[nH]3)c2n1` (stereo not given), the viability, T/C (compound 0.0316 µM) is 98.3% and 92.2% and 83.5%; the viability, T/C (compound 0.1 µM) was 55.4% and 45.4% and 34.2%; the viability, T/C (compound 0.316 µM) was 26% and 26.5% and 18%; the viability, T/C (compound 1 µM) was 19.7% and 28.9% and 18.2%; the viability, T/C (compound 3.16 µM) is 25.6% and 25.3% and 21.7%; the viability, T/C (compound 10 µM) was 30% and 31.4% and 23.9%. Moreover, the IC50 (curve of compound) is 124 nM and 89.3 nM and 69.2 nM.
For `CC1COCCN1c1cc(C2(O)CC3CCC(C2)O3)c2cnn(-c3ccn[nH]3)c2n1` (stereo not given), the viability, T/C reads like this: (compound 0.0316 µM) 71.4% and 88.3% and 80.1%; (compound 0.1 µM) 28.2% and 38.6% and 42.2%; (compound 0.316 µM) 23.5% and 28.2% and 31.8%; (compound 1 µM) 21.8% and 24.9% and 25.9%; (compound 3.16 µM) 19.8% and 24.2% and 26.4%; (compound 10 µM) 14.5% and 15.5% and 18.8%. Under “curve of compound”, the IC50 was 56.8 nM and 79 nM and 82.7 nM.
`CC1COCCN1c1cc(C2(S(C)(=N)=O)CC2)nc(-c2ccnc3[nH]ccc23)n1` (stereo not given): the viability, T/C is 95.4% and 101% (2×) (compound 0.0316 µM); 98.2% and 91% and 98.3% (compound 0.1 µM); 96% and 99.7% and 94.1% (compound 0.316 µM); 86.7% and 83.5% and 77.8% (compound 1 µM); 39% and 44.6% and 81.2% (compound 3.16 µM); 24.2% and 26.8% and 16.7% (compound 10 µM). The IC50 (curve of compound) is 2420 nM and 2690 nM and 5210 nM.
As for `CCCS(=O)(=O)Nc1ccc(F)c(C(=O)c2c[nH]c3ncc(-c4ccc(Cl)cc4)cc23)c1F`, the viability, T/C is 107% and 95.3% and 95.8% (compound 0.0316 µM); 101% and 100% and 102% (compound 0.1 µM); 101% and 97.4% and 107% (compound 0.316 µM); 97.1% and 102% and 107% (compound 1 µM); 76% and 70.9% and 76.2% (compound 3.16 µM); 54.1% and 46.8% and 37.6% (compound 10 µM). Moreover, the IC50 (curve of compound) was > 10000 nM and 8570 nM and 6910 nM.
For `CC[C@@]1(O)C(=O)OCc2c1cc1n(c2=O)Cc2cc3c(CN(C)C)c(O)ccc3nc2-1`, the viability, T/C is, setting by setting: (compound 0.000999 µM) 105% (2×) and 108%; (compound 0.00316 µM) 94.7% and 93.8% and 94.1%; (compound 0.00999 µM) 98% and 95.1% and 105%; (compound 0.0316 µM) 84.5% and 87.9% and 69.8%; (compound 0.0999 µM) 43.6% and 53.2% and 39.2%; (compound 0.316 µM) 49.1% and 51.8% and 48.5%. The IC50 (curve of compound) was 89.5 nM and > 316 nM and 76 nM.
Consider `CCc1c2c(nc3ccc(O)cc13)-c1cc3c(c(=O)n1C2)COC(=O)[C@]3(O)CC`, for which the viability, T/C is, setting by setting: (compound 0.000999 µM) 65.9% and 72.5% and 67.1%; (compound 0.00316 µM) 36% and 43.4% and 27.6%; (compound 0.00999 µM) 44% and 61.2% and 38.6%; (compound 0.0316 µM) 36% and 47.2% and 30.2%; (compound 0.0999 µM) 27% and 38.1% and 23.1%; (compound 0.316 µM) 16.4% and 21.9% and 12.8%.
In the case of `CN(C)c1ccc(Nc2c3ccc(NC(=O)CCN4CCCC4)cc3nc3cc(NC(=O)CCN4CCCC4)ccc23)cc1`, the viability, T/C (compound 0.0316 µM) was 102% [middle of 12 runs]; the viability, T/C (compound 0.1 µM) was 101% [middle of 12 runs]; the viability, T/C (compound 0.316 µM) is 99.9% [middle of 11 runs]; the viability, T/C (compound 1 µM) was 90% [middle of 12 runs]; the viability, T/C (compound 3.16 µM) is 86.2% [middle of 12 runs]; the viability, T/C (compound 10 µM) was 86% [middle of 12 runs]. Also, the IC50 (compound alone, run of 03/26/2024) is above 10000 nM.
